{"source": "the supplement of paper PMC12076712", "assay_in_all_cases": "pIC50, kinobeads binding competition", "details_in_all_cases": "cell material: Jurkat lysate", "key": {"UniProt Q9H0K1": {"target": "UniProt Q9H0K1", "sequence (Q9H0K1 whole entry, looked up)": "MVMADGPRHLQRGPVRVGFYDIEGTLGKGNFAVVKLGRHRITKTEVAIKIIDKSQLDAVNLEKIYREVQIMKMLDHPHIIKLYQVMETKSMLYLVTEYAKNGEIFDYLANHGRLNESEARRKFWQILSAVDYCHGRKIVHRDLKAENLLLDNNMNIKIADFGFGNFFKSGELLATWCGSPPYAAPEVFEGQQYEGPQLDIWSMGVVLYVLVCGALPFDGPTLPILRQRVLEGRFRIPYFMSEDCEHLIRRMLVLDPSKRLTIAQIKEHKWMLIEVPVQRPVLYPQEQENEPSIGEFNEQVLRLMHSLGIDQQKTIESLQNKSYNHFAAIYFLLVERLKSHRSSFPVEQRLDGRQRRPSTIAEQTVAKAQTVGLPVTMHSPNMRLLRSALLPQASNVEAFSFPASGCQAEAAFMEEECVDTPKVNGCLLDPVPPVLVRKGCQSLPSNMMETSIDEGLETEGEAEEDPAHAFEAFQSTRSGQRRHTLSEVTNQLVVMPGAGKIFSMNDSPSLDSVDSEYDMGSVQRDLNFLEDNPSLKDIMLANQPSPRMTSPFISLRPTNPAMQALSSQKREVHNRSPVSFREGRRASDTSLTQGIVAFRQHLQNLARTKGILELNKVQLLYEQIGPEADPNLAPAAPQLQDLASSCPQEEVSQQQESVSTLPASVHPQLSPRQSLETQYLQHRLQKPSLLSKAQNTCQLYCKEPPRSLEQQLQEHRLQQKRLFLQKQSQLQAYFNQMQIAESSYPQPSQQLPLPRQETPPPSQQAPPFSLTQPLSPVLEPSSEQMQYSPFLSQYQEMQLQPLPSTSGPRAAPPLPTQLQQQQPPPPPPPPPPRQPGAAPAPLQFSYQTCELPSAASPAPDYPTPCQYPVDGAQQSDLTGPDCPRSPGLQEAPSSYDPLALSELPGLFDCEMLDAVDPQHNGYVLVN"}, "EPHB2": {"target": "T1, EPHB2 (UniProt P29323)", "T1 sequence (whole entry)": "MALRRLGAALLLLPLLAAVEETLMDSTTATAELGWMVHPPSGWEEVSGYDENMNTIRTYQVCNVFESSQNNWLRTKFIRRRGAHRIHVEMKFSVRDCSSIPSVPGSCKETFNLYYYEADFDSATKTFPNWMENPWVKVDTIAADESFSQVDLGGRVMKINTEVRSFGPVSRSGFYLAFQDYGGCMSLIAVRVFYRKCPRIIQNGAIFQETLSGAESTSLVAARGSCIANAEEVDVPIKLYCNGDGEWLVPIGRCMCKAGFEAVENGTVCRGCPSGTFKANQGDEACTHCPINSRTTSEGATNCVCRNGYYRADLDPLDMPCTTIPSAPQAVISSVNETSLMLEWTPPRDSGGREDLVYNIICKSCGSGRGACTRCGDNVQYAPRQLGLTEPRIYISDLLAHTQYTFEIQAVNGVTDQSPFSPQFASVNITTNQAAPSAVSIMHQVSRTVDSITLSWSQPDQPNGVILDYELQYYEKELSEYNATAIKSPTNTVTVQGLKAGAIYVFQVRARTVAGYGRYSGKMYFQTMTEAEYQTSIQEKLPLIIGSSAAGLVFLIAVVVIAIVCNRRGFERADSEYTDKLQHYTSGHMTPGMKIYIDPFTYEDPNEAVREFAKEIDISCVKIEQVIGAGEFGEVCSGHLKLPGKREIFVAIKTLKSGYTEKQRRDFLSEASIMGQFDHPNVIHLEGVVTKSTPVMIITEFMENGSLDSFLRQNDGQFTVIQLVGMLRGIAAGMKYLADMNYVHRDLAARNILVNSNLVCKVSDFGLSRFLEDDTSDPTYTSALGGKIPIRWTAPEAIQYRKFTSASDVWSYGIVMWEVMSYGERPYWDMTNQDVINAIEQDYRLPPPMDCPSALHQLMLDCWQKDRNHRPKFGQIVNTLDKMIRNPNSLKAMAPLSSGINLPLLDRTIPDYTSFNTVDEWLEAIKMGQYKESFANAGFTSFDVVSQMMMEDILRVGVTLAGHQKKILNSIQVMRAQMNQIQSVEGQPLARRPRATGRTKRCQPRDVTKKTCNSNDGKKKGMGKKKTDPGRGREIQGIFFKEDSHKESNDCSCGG"}, "UniProt Q14004": {"target": "UniProt Q14004", "sequence (Q14004 whole entry, looked up)": "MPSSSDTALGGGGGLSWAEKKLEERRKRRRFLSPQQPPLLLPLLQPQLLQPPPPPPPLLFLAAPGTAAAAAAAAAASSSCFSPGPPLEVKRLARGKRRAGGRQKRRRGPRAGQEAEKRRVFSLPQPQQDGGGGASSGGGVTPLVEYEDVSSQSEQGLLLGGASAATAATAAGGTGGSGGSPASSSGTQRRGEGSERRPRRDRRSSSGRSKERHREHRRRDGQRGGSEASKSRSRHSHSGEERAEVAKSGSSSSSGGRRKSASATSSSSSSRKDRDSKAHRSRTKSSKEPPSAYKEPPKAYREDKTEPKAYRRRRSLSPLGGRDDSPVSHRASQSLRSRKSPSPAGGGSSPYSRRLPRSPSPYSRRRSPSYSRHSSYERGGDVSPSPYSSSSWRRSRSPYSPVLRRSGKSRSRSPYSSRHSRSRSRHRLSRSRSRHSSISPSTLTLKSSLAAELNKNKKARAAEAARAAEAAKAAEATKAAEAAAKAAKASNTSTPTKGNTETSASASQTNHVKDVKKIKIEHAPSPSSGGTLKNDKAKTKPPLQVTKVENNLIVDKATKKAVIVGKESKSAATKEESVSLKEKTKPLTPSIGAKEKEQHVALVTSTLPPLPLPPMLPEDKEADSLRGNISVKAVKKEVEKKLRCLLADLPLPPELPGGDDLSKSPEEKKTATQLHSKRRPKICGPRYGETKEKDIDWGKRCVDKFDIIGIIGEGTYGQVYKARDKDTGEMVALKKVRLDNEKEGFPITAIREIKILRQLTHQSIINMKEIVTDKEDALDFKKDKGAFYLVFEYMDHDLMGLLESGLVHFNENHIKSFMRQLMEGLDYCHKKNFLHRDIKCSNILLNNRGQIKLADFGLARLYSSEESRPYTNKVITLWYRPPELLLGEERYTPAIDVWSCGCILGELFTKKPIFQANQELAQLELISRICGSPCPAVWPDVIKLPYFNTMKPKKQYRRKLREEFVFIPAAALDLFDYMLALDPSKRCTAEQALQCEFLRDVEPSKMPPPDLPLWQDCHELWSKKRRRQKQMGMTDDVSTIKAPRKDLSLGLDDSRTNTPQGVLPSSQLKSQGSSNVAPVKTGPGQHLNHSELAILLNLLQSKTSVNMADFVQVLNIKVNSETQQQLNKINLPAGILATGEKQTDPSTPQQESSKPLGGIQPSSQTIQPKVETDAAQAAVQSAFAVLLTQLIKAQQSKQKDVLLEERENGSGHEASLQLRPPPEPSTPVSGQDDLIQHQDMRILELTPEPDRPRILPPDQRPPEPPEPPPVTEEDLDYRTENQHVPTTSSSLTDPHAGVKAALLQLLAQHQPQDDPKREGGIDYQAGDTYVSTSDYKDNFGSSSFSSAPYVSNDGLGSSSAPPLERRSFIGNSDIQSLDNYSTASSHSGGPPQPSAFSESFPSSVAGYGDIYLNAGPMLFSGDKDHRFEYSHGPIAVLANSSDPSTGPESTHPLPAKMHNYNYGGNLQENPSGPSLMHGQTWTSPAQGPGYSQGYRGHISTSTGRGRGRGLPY"}, "NEK1": {"target": "T2, NEK1 (UniProt Q96PY6)", "T2 sequence (whole entry)": "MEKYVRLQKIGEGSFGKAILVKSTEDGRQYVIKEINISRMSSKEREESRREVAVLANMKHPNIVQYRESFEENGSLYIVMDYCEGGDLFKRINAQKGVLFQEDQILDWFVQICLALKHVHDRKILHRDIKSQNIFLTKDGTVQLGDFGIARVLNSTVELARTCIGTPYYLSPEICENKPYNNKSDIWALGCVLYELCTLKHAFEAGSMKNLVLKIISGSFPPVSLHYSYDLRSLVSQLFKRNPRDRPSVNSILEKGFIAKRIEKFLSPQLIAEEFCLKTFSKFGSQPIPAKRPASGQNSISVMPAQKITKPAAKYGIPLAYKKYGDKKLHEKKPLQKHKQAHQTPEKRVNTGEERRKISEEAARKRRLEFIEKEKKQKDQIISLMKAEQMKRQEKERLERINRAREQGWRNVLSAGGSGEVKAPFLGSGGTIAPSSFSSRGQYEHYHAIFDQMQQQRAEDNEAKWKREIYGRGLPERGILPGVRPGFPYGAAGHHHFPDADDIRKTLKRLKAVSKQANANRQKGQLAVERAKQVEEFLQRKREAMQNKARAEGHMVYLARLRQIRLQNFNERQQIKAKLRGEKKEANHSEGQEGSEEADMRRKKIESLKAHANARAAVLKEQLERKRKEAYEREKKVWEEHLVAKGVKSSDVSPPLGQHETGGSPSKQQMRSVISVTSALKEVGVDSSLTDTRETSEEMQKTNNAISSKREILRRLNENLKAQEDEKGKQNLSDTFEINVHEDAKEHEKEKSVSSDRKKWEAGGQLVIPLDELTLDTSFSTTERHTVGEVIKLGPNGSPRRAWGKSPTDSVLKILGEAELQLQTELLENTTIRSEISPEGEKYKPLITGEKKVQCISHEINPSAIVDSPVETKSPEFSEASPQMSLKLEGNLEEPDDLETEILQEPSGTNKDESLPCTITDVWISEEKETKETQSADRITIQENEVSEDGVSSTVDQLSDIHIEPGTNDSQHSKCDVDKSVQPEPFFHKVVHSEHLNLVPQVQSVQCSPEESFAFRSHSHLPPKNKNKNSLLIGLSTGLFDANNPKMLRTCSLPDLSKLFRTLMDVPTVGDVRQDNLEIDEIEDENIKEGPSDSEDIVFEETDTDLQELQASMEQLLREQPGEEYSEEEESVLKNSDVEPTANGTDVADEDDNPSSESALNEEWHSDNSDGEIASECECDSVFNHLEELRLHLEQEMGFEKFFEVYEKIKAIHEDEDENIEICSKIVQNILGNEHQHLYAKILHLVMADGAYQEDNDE"}, "PRKACB": {"target": "PRKACB (UniProt P22694)"}, "UniProt O94804": {"target": "UniProt O94804"}, "UniProt Q9Y2I7": {"target": "UniProt Q9Y2I7", "sequence (Q9Y2I7 whole entry)": "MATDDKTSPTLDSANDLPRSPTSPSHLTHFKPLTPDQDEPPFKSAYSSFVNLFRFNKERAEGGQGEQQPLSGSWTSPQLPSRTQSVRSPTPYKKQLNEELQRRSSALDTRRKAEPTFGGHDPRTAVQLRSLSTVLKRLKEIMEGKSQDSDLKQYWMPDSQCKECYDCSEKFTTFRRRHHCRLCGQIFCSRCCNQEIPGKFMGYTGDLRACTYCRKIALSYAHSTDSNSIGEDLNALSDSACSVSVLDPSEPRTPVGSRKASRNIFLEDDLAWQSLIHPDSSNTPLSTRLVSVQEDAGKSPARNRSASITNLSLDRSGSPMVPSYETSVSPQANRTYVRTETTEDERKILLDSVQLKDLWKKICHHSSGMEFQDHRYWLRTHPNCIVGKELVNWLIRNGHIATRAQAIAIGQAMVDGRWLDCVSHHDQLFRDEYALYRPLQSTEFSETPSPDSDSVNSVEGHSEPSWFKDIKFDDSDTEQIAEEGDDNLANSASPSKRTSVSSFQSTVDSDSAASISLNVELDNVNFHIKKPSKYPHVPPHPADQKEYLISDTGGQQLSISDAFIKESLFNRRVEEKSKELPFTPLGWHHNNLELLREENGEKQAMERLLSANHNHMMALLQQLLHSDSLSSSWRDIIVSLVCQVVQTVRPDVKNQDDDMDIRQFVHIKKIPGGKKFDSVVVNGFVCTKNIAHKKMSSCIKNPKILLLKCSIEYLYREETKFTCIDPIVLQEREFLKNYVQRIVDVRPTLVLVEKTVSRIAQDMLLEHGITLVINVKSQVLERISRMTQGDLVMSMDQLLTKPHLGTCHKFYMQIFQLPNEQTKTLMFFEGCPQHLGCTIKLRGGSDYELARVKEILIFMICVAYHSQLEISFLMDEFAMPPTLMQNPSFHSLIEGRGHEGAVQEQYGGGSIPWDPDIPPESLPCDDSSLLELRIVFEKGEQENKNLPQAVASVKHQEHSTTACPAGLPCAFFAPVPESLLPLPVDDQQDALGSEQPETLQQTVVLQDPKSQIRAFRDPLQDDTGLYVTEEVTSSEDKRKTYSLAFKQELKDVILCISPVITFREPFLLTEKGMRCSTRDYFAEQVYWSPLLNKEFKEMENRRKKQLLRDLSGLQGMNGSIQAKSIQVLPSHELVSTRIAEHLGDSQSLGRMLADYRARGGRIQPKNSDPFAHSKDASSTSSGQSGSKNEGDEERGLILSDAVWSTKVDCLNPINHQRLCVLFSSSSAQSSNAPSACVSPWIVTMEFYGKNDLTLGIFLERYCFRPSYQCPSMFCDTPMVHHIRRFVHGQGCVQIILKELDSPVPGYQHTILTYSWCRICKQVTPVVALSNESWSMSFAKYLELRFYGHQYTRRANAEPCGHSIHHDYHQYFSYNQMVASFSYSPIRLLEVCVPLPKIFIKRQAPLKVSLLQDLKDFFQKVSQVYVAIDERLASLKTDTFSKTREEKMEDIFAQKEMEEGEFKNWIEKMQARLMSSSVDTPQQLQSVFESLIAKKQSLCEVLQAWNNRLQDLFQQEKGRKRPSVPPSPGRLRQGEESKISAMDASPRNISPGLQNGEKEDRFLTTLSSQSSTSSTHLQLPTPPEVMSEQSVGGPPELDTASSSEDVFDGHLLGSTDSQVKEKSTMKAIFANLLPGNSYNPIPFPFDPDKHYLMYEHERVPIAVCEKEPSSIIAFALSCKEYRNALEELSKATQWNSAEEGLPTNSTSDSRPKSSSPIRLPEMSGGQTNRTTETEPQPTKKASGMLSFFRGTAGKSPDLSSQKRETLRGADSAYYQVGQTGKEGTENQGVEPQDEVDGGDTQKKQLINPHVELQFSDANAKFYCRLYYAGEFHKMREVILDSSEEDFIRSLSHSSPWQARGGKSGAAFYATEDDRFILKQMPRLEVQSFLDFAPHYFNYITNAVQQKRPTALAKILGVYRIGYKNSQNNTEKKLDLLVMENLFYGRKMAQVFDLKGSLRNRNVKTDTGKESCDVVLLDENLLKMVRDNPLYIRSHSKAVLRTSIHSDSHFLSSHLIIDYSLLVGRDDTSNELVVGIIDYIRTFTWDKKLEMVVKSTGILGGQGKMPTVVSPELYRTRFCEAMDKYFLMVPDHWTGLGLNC"}, "NLK": {"target": "T3, NLK (UniProt Q9UBE8)", "T3 sequence (whole entry)": "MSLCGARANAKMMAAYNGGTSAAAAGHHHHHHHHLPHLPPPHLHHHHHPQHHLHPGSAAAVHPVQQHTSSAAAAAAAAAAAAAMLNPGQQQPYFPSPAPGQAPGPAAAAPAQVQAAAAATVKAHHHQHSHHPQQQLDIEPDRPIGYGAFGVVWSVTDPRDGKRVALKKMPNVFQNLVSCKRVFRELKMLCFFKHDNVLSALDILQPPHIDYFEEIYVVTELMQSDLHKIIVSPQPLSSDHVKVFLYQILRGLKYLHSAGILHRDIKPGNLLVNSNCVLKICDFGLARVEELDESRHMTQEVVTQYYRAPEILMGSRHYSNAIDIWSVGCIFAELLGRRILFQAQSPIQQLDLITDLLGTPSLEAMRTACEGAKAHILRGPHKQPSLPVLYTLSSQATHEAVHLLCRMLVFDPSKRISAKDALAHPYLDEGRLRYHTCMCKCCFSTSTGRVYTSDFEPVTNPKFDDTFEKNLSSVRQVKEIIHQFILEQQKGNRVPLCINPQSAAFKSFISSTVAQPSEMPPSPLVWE"}}, "note": "± gives the standard deviation of the averaged measurements."}
{"compound": "CCc1cnn2c(NCc3ccc[n+]([O-])c3)cc(N3CCCC[C@H]3CCO)nc12", "note": "[dinaciclib]", "values": [{"measurement": "pIC50", "setting": "UniProt Q9H0K1", "value": "< 4.52"}, {"measurement": "pIC50", "setting": "EPHB2", "value": "< 4.52"}, {"measurement": "pIC50", "setting": "UniProt Q14004", "value": "7.42 ± 0.28"}, {"measurement": "pIC50", "setting": "NEK1", "value": "< 4.52"}, {"measurement": "pIC50", "setting": "PRKACB", "value": "< 4.52"}, {"measurement": "pIC50", "setting": "UniProt O94804", "value": "< 4.52"}, {"measurement": "pIC50", "setting": "UniProt Q9Y2I7", "value": "< 4.52"}, {"measurement": "pIC50", "setting": "NLK", "value": "< 4.52"}]}
